Data reported in patent publication US20150044305A1, “[…] NITRIC OXIDE FOR TREATING RESPIRATORY DISEASES” (Advanced Inhalation Therapies (AIT) Ltd., priority 2012, published 2015).

Legend:
[1] = system: human respiratory syncytial virus (rgRSV30); experiment: RSV plaque assay after 30 minutes exposure to 160 ppm gNO; assay type: cell-based; conditions: single exposure of 30 minutes to 160 ppm gNO; for reduction of virus viability (factor): vs ambient air
Protocol: The efficacy of treating viral infection by respiratory syncytial virus by the methods presented herein was tested by exposure for 30 minutes of human respiratory syncytial virus (rgRSV30) to a gas mixture containing 160 ppm nitric oxide, using standard plaque assay as described hereinabove.
FIGS. 3A-D present the data obtained in the experiment using tissue culture samples harboring human rgRSV30, coupled to a green fluorescent protein, wherein the control experiment the samples were exposed to a ambient air (data not shown), and the tested samples having a starting viral level of 2000 PFU (FIG. 3A), 1000 PFU (FIG. 3B) and 500 PFU (FIG. 3C), were exposed to 160 ppm gNO for 30 minutes, whereas FIG. 3D presents a comparative bar plot comparing the control to test results.

[2] = system: P. aeruginosa; conditions: cited from earlier work
[3] = levels of gNO greater than 120 ppm

SMILES: [N]=O [gNO, nitric oxide]
- viral viability ([1]; starting 500 PFU): substantially nullified
- reduction of virus viability (factor) ([1]; starting 1000 PFU): ~10
- reduction of virus viability (factor) ([1]; starting 2000 PFU): ~10
- reduction of colony formation [2, 3]: greater than 90%
- time required to achieve greater than 90% reduction of colony formation [2, 3]: 8 to 12 h
- survival (downward bactericidal trend) ([2]; solid media, increasing gNO concentration up to 160 ppm, vs medical air): 5-10%
